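Grown in 96-well plates, cells were treated for 48 hours with each compound at five concentrations. Insufficient inhibition: endpoint recorded as highest concentration tested. GI50: concentration for 50% inhibition of growth. TGI: total growth inhibition.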
How the values were obtained:
Test in all cases: NCI anticancer screen, dose series, 48 h
OVCAR-3 ovarian = test system: OVCAR-3 ovarian
NCI/ADR-RES ovarian = test system: NCI/ADR-RES ovarian
KM12 colon = test system: KM12 colon
SK-MEL-5 melanoma = test system: SK-MEL-5 melanoma
T-47D breast = test system: T-47D breast
A498 renal = test system: A498 renal
IGROV1 ovarian = test system: IGROV1 ovarian
K-562 leukemia = test system: K-562 leukemia
UACC-62 melanoma = test system: UACC-62 melanoma
MOLT-4 leukemia = test system: MOLT-4 leukemia

Row | SMILES | GI50 (OVCAR-3 ovarian) [µM] | TGI (OVCAR-3 ovarian) [µM] | GI50 (NCI/ADR-RES ovarian) [µM] | TGI (NCI/ADR-RES ovarian) [µM] | GI50 (KM12 colon) [µM] | TGI (KM12 colon) [µM] | GI50 (SK-MEL-5 melanoma) [µM] | TGI (SK-MEL-5 melanoma) [µM] | GI50 (T-47D breast) [µM] | TGI (T-47D breast) [µM] | GI50 (A498 renal) [µM] | TGI (A498 renal) [µM] | GI50 (IGROV1 ovarian) [µM] | TGI (IGROV1 ovarian) [µM] | GI50 (K-562 leukemia) [µM] | TGI (K-562 leukemia) [µM] | GI50 (UACC-62 melanoma) [µM] | TGI (UACC-62 melanoma) [µM] | GI50 (MOLT-4 leukemia) [µM] | TGI (MOLT-4 leukemia) [µM]
1 | COc1c/c(=C2\C=c3ccccc3=N2)[nH]/c1=C\c1[nH]c(C)cc1C | < 0.0109 | 0.202 | 0.17 | > 55.3 | 0.0216 | 10.6 | < 0.0105 | 0.0352 | < 0.0211 | 6.05 | 0.242 | 7.47 | 0.102 | 17.7 | 0.0685 | 8.33 | 0.0134 | 0.0268 | < 0.0203 | –
2 | Cc1c(-c2cnccn2)ssc1=S | – | > 100 | – | > 100 | – | > 100 | – | > 100 | – | > 100 | – | 59.7 | – | > 100 | – | > 100 | – | > 100 | – | > 100
3 | COc1cc2c(cc1OC(C)C)[C@H](c1ccc(Cl)cc1)N(c1ccc(N(C)CC3CCC(N4CCN(C)C(=O)C4)CC3)cc1)C(=O)C2 (some centres undefined) | 2.6 | 7.07 | 3.18 | 14.7 | 3.13 | 9.11 | 1.44 | 2.84 | 2.62 | 11.8 | 1.38 | 6.49 | 1.16 | 4.13 | 3.56 | 16.9 | 0.521 | 3.52 | 0.363 | 5.77
4 | Cc1onc(-c2ccccc2)c1C(=O)N/N=C/c1cc(Cl)cc(Cl)c1O | 3.82 | 26.6 | 3.76 | 34.3 | 5.54 | > 100 | 3.47 | 21.1 | 6.31 | 57.8 | 15 | 58.2 | 2.92 | 21.7 | 4.58 | 55.9 | 2.16 | 6.83 | 3.53 | 22.9
5 | COc1ccccc1Nc1cc(O)c2c(=O)cc(-c3ccccc3)oc2c1 | 2.05 | 5.2 | 1.99 | 18 | 2.76 | 55.2 | 3 | 9.58 | 4.36 | > 100 | 3.08 | 13.9 | 2.98 | 18.5 | 0.59 | > 100 | 2.39 | 12.8 | 4.08 | > 100
6 | CC(C)C[C@H](NC(=O)CNC(=O)c1cc(Cl)ccc1Cl)B(O)O | < 0.0141 | 0.0292 | 0.183 | > 100 | 0.0295 | 0.101 | < 0.0136 | 0.0305 | < 0.0156 | 0.0602 | < 0.0158 | 0.0336 | 0.0498 | 0.283 | 0.03 | 1.21 | < 0.0175 | 0.0457 | 0.0187 | 0.0797
7 | Oc1c(Cl)cc(Cl)c(Cl)c1CNCCNCc1c(O)c(Cl)cc(Cl)c1Cl | 0.502 | 7.08 | 0.245 | 6.84 | 0.963 | 8 | 1.35 | 8.06 | 0.988 | > 50 | 3.03 | 17.3 | 0.951 | 7.8 | 0.483 | > 50 | 0.917 | 5.45 | 0.561 | > 50
8 | CCc1nc(N)nc(N)c1-c1ccc(Cl)c([N+](=O)[O-])c1 | – | > 100 | – | > 100 | – | > 100 | – | 48.8 | – | > 100 | – | > 96 | – | > 100 | – | > 100 | – | > 86.4 | – | > 65.2
9 | COc1ccc(/C=C\c2cc(OC)c(OC)c(OC)c2)cc1OCC(=O)Nc1nc2ccc(F)cc2s1 | 9.99 | > 100 | 2.55 | > 100 | 4.78 | > 100 | 1.76 | 8.96 | 3.39 | 68.5 | 6.25 | > 100 | 4.17 | > 100 | 3.62 | > 100 | 4.05 | > 100 | 3.07 | > 100
